The test system of one assay is TGF-β signaling. Briefly: Assay for evaluating cellular inhibition of TGF-β signaling, 4T1 (SBE-luc2P) luciferase reporter. Format: cell-based. The conditions noted are these: Mus musculus, 4T1, 4T1 (SBE-luc2P) transient pool, 0.2% FBS, 2 h pre-treatment, TGF-β1 2 ng/mL 24 h; read-out: IC50 4T1 Cell. Summed up:
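Luminescence from SMAD-binding-element luciferase was measured after 24 h of 2 ng/mL TGF-β1 at 37 °C, following 2 h compound pre-treatment. HEK293 stable reporter cells were used at 2.5×10^4/well in 0.5% FBS (~80% confluent); the 4T1 SBE-luc2P transient pool at 6×10^3/well in 0.2% FBS (~60% confluent).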
For orientation: A reporter such as luciferase makes a cellular process visible.

The target of the next assay is T1, ALK5 kinase (Homo sapiens, UniProt P36897).
T1 sequence (P36897 34-503): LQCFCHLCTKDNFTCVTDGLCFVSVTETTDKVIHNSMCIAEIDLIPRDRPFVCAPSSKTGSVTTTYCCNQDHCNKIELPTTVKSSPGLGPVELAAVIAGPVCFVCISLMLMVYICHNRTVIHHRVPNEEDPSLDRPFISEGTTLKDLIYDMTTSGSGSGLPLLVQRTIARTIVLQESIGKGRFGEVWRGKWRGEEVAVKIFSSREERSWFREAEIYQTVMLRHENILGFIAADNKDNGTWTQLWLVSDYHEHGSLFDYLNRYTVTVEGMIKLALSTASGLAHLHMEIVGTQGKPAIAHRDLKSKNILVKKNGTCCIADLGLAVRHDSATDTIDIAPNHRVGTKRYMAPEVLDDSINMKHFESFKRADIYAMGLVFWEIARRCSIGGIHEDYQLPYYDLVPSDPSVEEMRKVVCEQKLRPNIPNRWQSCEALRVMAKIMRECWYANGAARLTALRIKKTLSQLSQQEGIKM
Briefly: LanthaScreen Eu Kinase Binding Assay. The conditions noted are these: Kinase Tracer 178, Eu-anti-GST Antibody, read-out: IC50 Enzyme. As to the method: [Example 1] LanthaScreen Eu Kinase Binding Assay
4 μL of 4× Test Compound in 4% DMSO and 4 μL of 4× Kinase in Kinase buffer were added to wells (low volume, white 384-well plate (Greiner Cat. #784207)). The plate was shaken for 30 seconds, centrifuged for 10 seconds at 1000 rpm, and incubated at RT for 30 minutes. Then, 4 μL of 4× Eu-anti-GST Antibody and 4 μL of 4× Kinase Tracer 178 were added to the wells. The plate was shaken for 30 seconds, centrifuged for 10 seconds at 1000 rpm, and incubated at RT for 60 minutes. Fluorescence was measured by a plate reader, Biotek Synergy H1 (Vermont, USA) under the following conditions. • Excitation: 340 nm (3 nm bandpass) • Kinase tracer emission: 665 nm (10 nm bandpass) • Eu Ab emission: 615 nm (10 nm bandpass) • Emission ratio=665 nm (tracer)/615 nm (Eu Ab) • The higher the binding affinity of compound to ALK5 kinase is, the less the emission ratio is.

Where only a bound is given, the exact number is not on record here.

This is an account of results in patent US20250206730A1 (AUTOTELIC BIO INC., priority 2022, published 2025).

On to `CNc1nc(-c2ccccc2)c(Oc2ccnc(Nc3cccc(C(=O)O)c3)c2)s1` [A-57, 3-((4-((2-(Methylamino)-4-phenylthiazol-5-yl)oxy)pyridin-2-yl)amino)benzoic acid], for which the IC50 (as a rule, the concentration needed to halve the response being measured) is over 100 nM in the assay with TGF-β signaling and under 100 nM on ALK5 kinase.
For `Cc1nc(-c2ccccc2)c(Oc2ccnc(Nc3cccc(S(N)(=O)=O)c3)c2)s1` [A-58, 3-((4-((2-Methyl-4-phenylthiazol-5-yl)oxy)pyridin-2-yl)amino)benzenesulfonamide], in that order: under 100 nM and under 100 nM.
In the same order, the values of `Cc1nc(-c2ccccc2)c(Oc2ccnc(Nc3ccnc(C(C)(C)O)c3)c2)s1` [A-59, 2-(4-((4-((2-Methyl-4-phenylthiazol-5-yl)oxy)pyridin-2-yl)amino)pyridin-2-yl)propan-2-ol] are over 100 nM and under 100 nM.
For `Cc1nc(-c2ccccc2)c(Oc2ccnc(Nc3cccc(C(N)=O)c3)c2)s1` [A-60, 3-((4-((2-Methyl-4-phenylthiazol-5-yl)oxy)pyridin-2-yl)amino)benzamide], in that order: under 100 nM and under 100 nM.
`Cc1nc(-c2ccccc2)c(Oc2ccnc(Nc3cccc(C(C)(C)O)c3)c2)s1` [A-61, 2-(3-((4-((2-Methyl-4-phenylthiazol-5-yl)oxy)pyridin-2-yl)amino)phenyl)propan-2-ol]: the IC50 in the assay with TGF-β signaling and on ALK5 kinase was under 100 nM throughout.
Turning to `Cc1nc(-c2ccccc2)c(Oc2ccnc(Nc3ccc(C(N)=O)cc3)c2)s1` [A-63], the IC50 is over 100 nM in the assay with TGF-β signaling and under 100 nM at ALK5 kinase.
For `Cc1nc(-c2ccccc2)c(Oc2ccnc(Nc3ccc(S(N)(=O)=O)cc3)c2)s1` [A-64, 4-((4-((2-Methyl-4-phenylthiazol-5-yl)oxy)pyridin-2-yl)amino)benzenesulfonamide], in that order: over 100 nM and under 100 nM.
On to `Cc1nc(-c2ccccc2)c(Oc2ccnc(Nc3ccc(C(C)(C)O)nc3)c2)s1` [A-65, 2-(5-((4-((2-Methyl-4-phenylthiazol-5-yl)oxy)pyridin-2-yl)amino)pyridin-2-yl)propan-2-ol], for which the IC50 in the assay with TGF-β signaling is over 100 nM; at ALK5 kinase it was under 100 nM.
Turning to `Cc1nc(-c2ccccc2)c(Oc2ccnc(Nc3cccc(C(C)(C)C(=O)O)c3)c2)s1` [A-66, 2-Methyl-2-(3-((4-((2-methyl-4-phenylthiazol-5-yl)oxy)pyridin-2-yl)amino)phenyl)propanoic acid], the IC50 with TGF-β signaling and on ALK5 kinase was under 100 nM in each case.
Consider `Cc1nc(-c2ccccc2)c(Oc2ccnc(Nc3cccc(S(=O)(=O)O)c3)c2)s1` [A-68, 3-((4-((2-Methyl-4-phenylthiazol-5-yl)oxy)pyridin-2-yl)amino)benzenesulfonic acid], for which the IC50 was over 100 nM with TGF-β signaling and under 100 nM at ALK5 kinase.
In the case of `CNC(=O)c1cccc(Nc2cc(Oc3sc(C)nc3-c3ccccc3)ccn2)c1` [A-69, N-Methyl-3-((4-((2-methyl-4-phenylthiazol-5-yl)oxy)pyridin-2-yl)amino)benzamide], the IC50 in the assay on TGF-β signaling and on ALK5 kinase was under 100 nM in each case.
For the compound `Cc1nc(-c2ccccc2)c(Oc2ccnc(Nc3cccc(S(C)(=O)=O)c3)c2)s1` [A-70, 4-((2-Methyl-4-phenylthiazol-5-yl)oxy)-N-(3-(methylsulfonyl)phenyl)pyridin-2-amine], the IC50 in the assay on TGF-β signaling and on ALK5 kinase was under 100 nM in each case.
As to `Cc1nc(-c2ccccc2)c(Oc2ccnc(Nc3cccc(NS(C)(=O)=O)c3)c2)s1` [A-71, N-(3-((4-((2-Methyl-4-phenylthiazol-5-yl)oxy)pyridin-2-yl)amino)phenyl)methanesulfonamide], the IC50 with TGF-β signaling and on ALK5 kinase was under 100 nM each time.
`Cc1nc(-c2ccccc2)c(Oc2ccnc(Nc3cccc(S(=O)(=O)C(F)(F)F)c3)c2)s1` [A-72, 4-((2-Methyl-4-phenylthiazol-5-yl)oxy)-N-(3-((trifluoromethyl)sulfonyl)phenyl)pyridin-2-amine]: the IC50 with TGF-β signaling and at ALK5 kinase was over 100 nM in each case.
With `Cc1nc(-c2ccccc2)c(Oc2ccnc(Nc3ccc(C(N)=O)nc3)c2)s1` [A-91, 5-((4-((2-Methyl-4-phenylthiazol-5-yl)oxy)pyridin-2-yl)amino)picolinamide], the figures for the concentration for half-maximal inhibition (IC50) in the assay on TGF-β signaling and on ALK5 kinase were over 100 nM and under 100 nM, respectively.
In the case of `Cc1nc(-c2ccccc2)c(Oc2ccnc(Nc3cncc(C(N)=O)c3)c2)s1` [A-92, 5-((4-((2-Methyl-4-phenylthiazol-5-yl)oxy)pyridin-2-yl)amino)nicotinamide], the IC50 in the assay on TGF-β signaling and at ALK5 kinase was under 100 nM in each case.
Take `Cc1nc(-c2ccccc2)c(Oc2ccnc(Nc3cc(C(N)=O)ccn3)c2)s1` [A-93, 2-((4-((2-Methyl-4-phenylthiazol-5-yl)oxy)pyridin-2-yl)amino)isonicotinamide]: the IC50 with TGF-β signaling and on ALK5 kinase was under 100 nM in each case.
As for `Cc1nc(-c2ccccc2)c(Oc2ccnc(Nc3ccc(N4CCNCC4)cc3)c2)s1` [A-104, 4-((2-Methyl-4-phenylthiazol-5-yl)oxy)-N-(4-(piperazin-1-yl)phenyl)pyridin-2-amine], the IC50 in the assay on TGF-β signaling and on ALK5 kinase was under 100 nM throughout.
Turning to `Cc1nc(-c2ccccc2)c(Oc2ccnc(Nc3ccc(OCCN4CCCCC4)cc3)c2)s1` [A-105, 4-((2-Methyl-4-phenylthiazol-5-yl)oxy)-N-(4-(2-(piperidin-1-yl)ethoxy)phenyl)pyridin-2-amine], the IC50 with TGF-β signaling and at ALK5 kinase was under 100 nM each time.
Turning to `Cc1nc(-c2ccccc2)c(Oc2ccnc(Nc3cccc(NS(=O)(=O)C(F)(F)F)c3)c2)s1` [A-107, 1,1,1-Trifluoro-N-(3-((4-((2-methyl-4-phenylthiazol-5-yl)oxy)pyridin-2-yl)amino)phenyl)methanesulfonamide], the IC50 in the assay on TGF-β signaling and at ALK5 kinase was under 100 nM each time.
`Cc1nc(-c2ccccc2)c(Oc2ccnc(Nc3cccc(C(=O)O)c3)c2)s1` [A-109, 3-((4-((2-Methyl-4-phenylthiazol-5-yl)oxy)pyridin-2-yl)amino)benzoic acid]: the IC50 with TGF-β signaling was over 100 nM; at ALK5 kinase, under 100 nM.
For `Cc1nc(-c2ccccc2)c(Oc2ccnc(Nc3ccc(C(=O)O)cc3)c2)s1` [A-110, 4-((4-((2-Methyl-4-phenylthiazol-5-yl)oxy)pyridin-2-yl)amino)benzoic acid], in that order: over 100 nM and under 100 nM.
Regarding `Cc1nc(-c2ccccc2)c(Oc2ccnc(Nc3cccc(CC#N)c3)c2)s1` [A-111, 2-(3-((4-((2-Methyl-4-phenylthiazol-5-yl)oxy)pyridin-2-yl)amino)phenyl)acetonitrile], the IC50 in the assay on TGF-β signaling and on ALK5 kinase was under 100 nM in each case.
As to `Cc1nc(-c2ccccc2)c(Oc2ccnc(Nc3cccc(Cc4nnn[nH]4)c3)c2)s1` [A-112, N-(3-((1H-Tetrazol-5-yl)methyl)phenyl)-4-((2-methyl-4-phenylthiazol-5-yl)oxy)pyridin-2-amine], the IC50 in the assay on TGF-β signaling and at ALK5 kinase was under 100 nM throughout.
Regarding `Cc1nc(-c2ccccc2)c(Oc2ccnc(Nc3cccc(CCC#N)c3)c2)s1` [A-113, 3-(3-((4-((2-Methyl-4-phenylthiazol-5-yl)oxy)pyridin-2-yl)amino)phenyl)propanenitrile], the IC50 in the assay with TGF-β signaling and at ALK5 kinase was under 100 nM throughout.
Take `Cc1nc(-c2ccccc2)c(Oc2ccnc(Nc3cccc(CCc4nn[nH]n4)c3)c2)s1` [A-114, N-(3-(2-(2H-Tetrazol-5-yl)ethyl)phenyl)-4-((2-methyl-4-phenylthiazol-5-yl)oxy)pyridin-2-amine]: the IC50 in the assay on TGF-β signaling and on ALK5 kinase was under 100 nM throughout.
In the case of `CC(C)(O)c1cccc(Nc2cc(Oc3sc(C4CC4)nc3-c3ccccc3)ccn2)c1` [A-115, 2-(3-((4-((2-Cyclopropyl-4-phenylthiazol-5-yl)oxy)pyridin-2-yl)amino)phenyl)propan-2-ol], the IC50 in the assay on TGF-β signaling was over 100 nM; at ALK5 kinase it was under 100 nM.
On to `NS(=O)(=O)c1cccc(Nc2cc(Oc3sc(C4CC4)nc3-c3ccccc3)ccn2)c1` [A-116, 3-((4-((2-Cyclopropyl-4-phenylthiazol-5-yl)oxy)pyridin-2-yl)amino)benzenesulfonamide], for which the concentration for half-maximal inhibition (IC50) with TGF-β signaling and at ALK5 kinase was under 100 nM throughout.
In the case of `NC(=O)c1cccc(Nc2cc(Oc3sc(C4CC4)nc3-c3ccccc3)ccn2)c1` [A-117, 3-((4-((2-Cyclopropyl-4-phenylthiazol-5-yl)oxy)pyridin-2-yl)amino)benzamide], the IC50 in the assay with TGF-β signaling and at ALK5 kinase was under 100 nM throughout.
